# Results from patent publication US7863449B2, “Modulators of muscarinic receptors” (Vertex Pharmaceuticals Incorporated, priority 2004, dated 2011).
# Experiments:
# [1] = target: T1, M1 muscarinic receptor (Homo sapiens, UniProt P11229); assay: Functional mobilization of intracellular calcium (FLIPR), M1-CHO cells; type: cell-based; conditions: for Emax: 100% efficacy is the maximum response obtained using Carbachol as a control; for M1 Activity: M1-CHO cells, FLIPR calcium mobilization
# T1 construct: expressed in transfected cells; host or cells: CHO (M1-CHO)
# T1 sequence (P11229 1-460): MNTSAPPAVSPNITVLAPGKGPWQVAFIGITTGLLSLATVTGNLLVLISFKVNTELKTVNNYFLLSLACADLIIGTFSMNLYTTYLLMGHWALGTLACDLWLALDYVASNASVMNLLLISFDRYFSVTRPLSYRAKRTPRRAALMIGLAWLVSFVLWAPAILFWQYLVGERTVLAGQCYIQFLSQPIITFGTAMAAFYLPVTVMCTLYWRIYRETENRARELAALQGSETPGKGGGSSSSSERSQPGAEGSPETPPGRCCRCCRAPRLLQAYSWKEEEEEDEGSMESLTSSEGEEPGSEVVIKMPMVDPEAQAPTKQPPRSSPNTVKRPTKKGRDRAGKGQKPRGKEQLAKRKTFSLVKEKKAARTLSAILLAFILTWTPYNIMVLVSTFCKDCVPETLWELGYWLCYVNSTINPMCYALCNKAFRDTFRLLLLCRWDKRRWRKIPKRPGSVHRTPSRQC
# How it was run: (§1)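 Calcium flux recorded 60 s (ex 488, em 540 nm) in dye-loaded M1- or M4-CHO cells in pH 7.4 buffer with 1 mM probenecid. Inhibition measured against carbachol EC80 after 15 min compound pre-incubation or co-addition; agonism measured by compound addition alone. Final DMSO 0.5%.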
# [2] = target: T2, M4 muscarinic receptor (Homo sapiens, UniProt P08173); assay: Functional mobilization of intracellular calcium (FLIPR), M4-CHO cells; type: cell-based; conditions: for Emax: 100% efficacy is the maximum response obtained using Carbachol as a control; for M4 Activity: M4-CHO cells, FLIPR calcium mobilization
# T2 construct: expressed in transfected cells; host or cells: CHO (M4-CHO)
# T2 sequence (P08173 1-479): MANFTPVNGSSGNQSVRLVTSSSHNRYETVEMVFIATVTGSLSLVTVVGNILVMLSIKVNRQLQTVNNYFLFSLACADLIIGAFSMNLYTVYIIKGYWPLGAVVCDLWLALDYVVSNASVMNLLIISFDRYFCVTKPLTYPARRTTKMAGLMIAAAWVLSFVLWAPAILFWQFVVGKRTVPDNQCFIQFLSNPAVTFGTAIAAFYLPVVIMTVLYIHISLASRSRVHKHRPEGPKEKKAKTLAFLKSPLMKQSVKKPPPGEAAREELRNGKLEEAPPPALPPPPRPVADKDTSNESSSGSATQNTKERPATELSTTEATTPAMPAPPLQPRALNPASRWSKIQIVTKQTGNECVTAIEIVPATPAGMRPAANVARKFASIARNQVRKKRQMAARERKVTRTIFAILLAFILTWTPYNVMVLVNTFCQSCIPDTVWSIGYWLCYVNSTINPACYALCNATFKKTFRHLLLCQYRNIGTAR
# How it was run: as §1
SMILES,Emax [1] [%],M1 Activity [1],Emax [2] [%],M4 Activity [2]
CC(=O)N1Cc2ccccc2C2(CCN(CC3=C(C)C=CCC3(C)C)CC2)C1 [compound 65],25 to 100,+ (activity was measured to be greater than 5.0 μM),25 to 100,+ (activity was measured to be greater than 5.0 μM)
CCOC(=O)N1CCC(N2CCC3(CC2)CN(C(=O)OCC)Cc2ccccc23)CC1 [compound 120],25 to 100,+++ (activity was measured to be less than 1.0 μM),25 to 100,+++ (activity was measured to be less than 1.0 μM)
CCOC(=O)N1C2CCC1CC(N1CCC3(CC1)CN(C(=O)C1CCCCC1)Cc1ccccc13)C2 (stereo not shown) [compound 193],25 to 100,+++ (activity was measured to be less than 1.0 μM),< 25,+++ (activity was measured to be less than 1.0 μM)
CC(=O)N1Cc2ccccc2C2(CCN(C3CC4CCC(C3)N4C(=O)O[C@@H]3CCOC3)CC2)C1 (stereo partly shown) [compound 13],25 to 100,+++ (activity was measured to be less than 1.0 μM),25 to 100,+++ (activity was measured to be less than 1.0 μM)
CCCOc1ccc(CN2CCC3(CC2)CN(C(C)=O)Cc2ccccc23)cc1 [compound 100],< 25,+ (activity was measured to be greater than 5.0 μM),< 25,+ (activity was measured to be greater than 5.0 μM)
CC(=O)N1Cc2ccccc2C2(CCN(Cc3sccc3C)CC2)C1 [compound 142],< 25,+ (activity was measured to be greater than 5.0 μM),< 25,+ (activity was measured to be greater than 5.0 μM)
CS(=O)(=O)N1Cc2ccccc2C2(CCN(C3CC4CCC(C3)N4C(=O)O[C@H]3CCOC3)CC2)C1 (stereo partly shown) [compound 181],25 to 100,+++ (activity was measured to be less than 1.0 μM),25 to 100,+++ (activity was measured to be less than 1.0 μM)
Cc1cc(C(=O)N2Cc3ccccc3C3(CCN(C4CC5CCC(C4)N5C(=O)OC4CCC4)CC3)C2)nn1C (stereo not shown) [compound 223],25 to 100,+++ (activity was measured to be less than 1.0 μM),25 to 100,+++ (activity was measured to be less than 1.0 μM)
CC(=O)N1Cc2ccccc2C2(CCN(CC3CCN(C(=O)O[C@H]4CCOC4)CC3)CC2)C1 [compound 243],< 25,+ (activity was measured to be greater than 5.0 μM),< 25,+ (activity was measured to be greater than 5.0 μM)
CN(C)C(=O)N1Cc2ccccc2C2(CCN(C3CC4CCC(C3)N4C(=O)OC3CCC3)CC2)C1 (stereo not shown) [compound 327],25 to 100,+++ (activity was measured to be less than 1.0 μM),25 to 100,+++ (activity was measured to be less than 1.0 μM)
CCOC(=O)N1CCC(N2CCC3(CC2)CN(C(=O)OC(C)C)Cc2ccccc23)CC1 [compound 166],25 to 100,+++ (activity was measured to be less than 1.0 μM),25 to 100,+++ (activity was measured to be less than 1.0 μM)
CCOC(=O)N1CCC(N2CCC3(CC2)CN(C(=O)c2nc(C)oc2C)Cc2ccccc23)CC1 [compound 261],25 to 100,+++ (activity was measured to be less than 1.0 μM),25 to 100,+++ (activity was measured to be less than 1.0 μM)
CCOC(=O)N1CCC(CN2CCC3(CC2)CN(C(=O)c2ccccn2)Cc2ccccc23)CC1 [compound 330],25 to 100,+++ (activity was measured to be less than 1.0 μM),25 to 100,+++ (activity was measured to be less than 1.0 μM)
